Results as given in ChEMBL document CHEMBL1201862, “PubChem BioAssay data set” (2004).
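These data come from cells grown in 96-well plates and exposed to compound for 48 hours at five concentrations. GI50 marks 50% less growth.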 Active and inactive are the calls of the source. No stated cut-off is given here; in the data, active = GI50 up to about 1.1 µM and inactive = higher.

Experiments:
Experiment in all cases: NCI tumour cell line growth inhibition, 48 h
786-0 = tested on: 786-0
A549 = tested on: A549
CCRF-CEM = tested on: CCRF-CEM
EKVX = tested on: EKVX
HCC 2998 = tested on: HCC 2998
IGROV-1 = tested on: IGROV-1
KM12 = tested on: KM12
LOX IMVI = tested on: LOX IMVI
MDA-MB-231 = tested on: MDA-MB-231
NCI-H23 = tested on: NCI-H23
OVCAR-4 = tested on: OVCAR-4
OVCAR-5 = tested on: OVCAR-5
RXF 393 = tested on: RXF 393
SK-MEL-5 = tested on: SK-MEL-5
SNB-75 = tested on: SNB-75
SW-620 = tested on: SW-620
T47D = tested on: T47D
TK-10 = tested on: TK-10
U-251 = tested on: U-251
UO-31 = tested on: UO-31

**Q.** With `O=[N+]([O-])c1cc(C(F)(F)F)cc2n[se]nc12` as the compound, how does the GI50 (786-0) read?
**A.** 2.21 µM (inactive)

**Q.** And the GI50 (A549)?
**A.** 11.4 µM (inactive)

**Q.** What about the GI50 (CCRF-CEM) of the same compound?
**A.** 1.68 µM (inactive)

**Q.** What about the GI50 (EKVX) of the same compound?
**A.** 5.3 µM (inactive)

**Q.** What about the GI50 (HCC 2998) of the same compound?
**A.** 3.98 µM (inactive)

**Q.** What about the GI50 (IGROV-1) of the same compound?
**A.** 5.07 µM (inactive)

**Q.** What about the GI50 (KM12) of the same compound?
**A.** 9.33 µM (inactive)

**Q.** What about the GI50 (LOX IMVI) of the same compound?
**A.** 5.53 µM (inactive)

**Q.** And the GI50 (MDA-MB-231)?
**A.** 2.13 µM (inactive)

**Q.** What about the GI50 (NCI-H23) of the same compound?
**A.** 3.93 µM (inactive)

**Q.** And the GI50 (OVCAR-4)?
**A.** 1.97 µM (inactive)

**Q.** And the GI50 (OVCAR-5)?
**A.** 13.1 µM (inactive)

**Q.** What about the GI50 (RXF 393) of the same compound?
**A.** 2.3 µM (inactive)

**Q.** And the GI50 (SK-MEL-5)?
**A.** 3.24 µM (inactive)

**Q.** And the GI50 (SNB-75)?
**A.** 7.64 µM (inactive)

**Q.** And the GI50 (SW-620)?
**A.** 1.45 µM (inactive)

**Q.** And the GI50 (T47D)?
**A.** 3.17 µM (inactive)

**Q.** What about the GI50 (TK-10) of the same compound?
**A.** 4.5 µM (inactive)

**Q.** What about the GI50 (U-251) of the same compound?
**A.** 15.1 µM (inactive)

**Q.** What about the GI50 (UO-31) of the same compound?
**A.** 5.53 µM (inactive)

**Q.** For `Cc1ccc2nc(Cl)c(/C=N/N3C(=O)/C(=C/Cc4ccco4)N=C3c3ccccc3)cc2c1`, which GI50 (786-0) is on record?
**A.** 20.4 µM (inactive)

**Q.** What about the GI50 (A549) of the same compound?
**A.** 36.4 µM (inactive)

**Q.** And the GI50 (CCRF-CEM)?
**A.** > 100 µM (inactive)

**Q.** What about the GI50 (EKVX) of the same compound?
**A.** 30.5 µM (inactive)

**Q.** What about the GI50 (HCC 2998) of the same compound?
**A.** 28.6 µM (inactive)

**Q.** And the GI50 (IGROV-1)?
**A.** 23.1 µM (inactive)

**Q.** What about the GI50 (KM12) of the same compound?
**A.** 3.33 µM (inactive)

**Q.** And the GI50 (LOX IMVI)?
**A.** 27.4 µM (inactive)

**Q.** And the GI50 (MDA-MB-231)?
**A.** 67.8 µM (inactive)

**Q.** And the GI50 (NCI-H23)?
**A.** > 49.2 µM (inactive)

**Q.** And the GI50 (OVCAR-4)?
**A.** 51.6 µM (inactive)

**Q.** What about the GI50 (OVCAR-5) of the same compound?
**A.** > 74.6 µM (inactive)

**Q.** What about the GI50 (RXF 393) of the same compound?
**A.** 2.54 µM (inactive)

**Q.** And the GI50 (SK-MEL-5)?
**A.** 56.4 µM (inactive)

**Q.** What about the GI50 (SNB-75) of the same compound?
**A.** > 47.4 µM (inactive)

**Q.** And the GI50 (SW-620)?
**A.** 58.1 µM (inactive)

**Q.** And the GI50 (T47D)?
**A.** > 50 µM (inactive)

**Q.** What about the GI50 (TK-10) of the same compound?
**A.** 18.4 µM (inactive)

**Q.** And the GI50 (U-251)?
**A.** 50.8 µM (inactive)

**Q.** What about the GI50 (UO-31) of the same compound?
**A.** 23.7 µM (inactive)

**Q.** With `CCCCCCCCCCCCCCCCCCNc1ccn(C2OC(COP(=O)(O)OC3CC(n4cc(F)c(=O)[nH]c4=O)OC3COP(=O)(O)OCC3OC(n4ccc(N)nc4=O)C(O)C3O)C(O)C2O)c(=O)n1` (stereo not given) as the compound, how does the GI50 (786-0) read?
**A.** 1.31 µM (inactive)

**Q.** And the GI50 (A549)?
**A.** 0.0906 µM (active)

**Q.** And the GI50 (CCRF-CEM)?
**A.** 0.0206 µM (active)

**Q.** What about the GI50 (EKVX) of the same compound?
**A.** 32 µM (inactive)

**Q.** And the GI50 (HCC 2998)?
**A.** 2.35 µM (inactive)

**Q.** What about the GI50 (IGROV-1) of the same compound?
**A.** 15.2 µM (inactive)

**Q.** What about the GI50 (KM12) of the same compound?
**A.** 14.4 µM (inactive)

**Q.** What about the GI50 (LOX IMVI) of the same compound?
**A.** 0.139 µM (active)

**Q.** And the GI50 (MDA-MB-231)?
**A.** 26.2 µM (inactive)

**Q.** And the GI50 (NCI-H23)?
**A.** 2.92 µM (inactive)

**Q.** And the GI50 (OVCAR-4)?
**A.** 41.7 µM (inactive)

**Q.** And the GI50 (OVCAR-5)?
**A.** 36.5 µM (inactive)

**Q.** And the GI50 (RXF 393)?
**A.** 16 µM (inactive)

**Q.** And the GI50 (SK-MEL-5)?
**A.** 3.62 µM (inactive)

**Q.** What about the GI50 (SNB-75) of the same compound?
**A.** 38.6 µM (inactive)

**Q.** What about the GI50 (SW-620) of the same compound?
**A.** 16.2 µM (inactive)

**Q.** What about the GI50 (T47D) of the same compound?
**A.** 24.5 µM (inactive)

**Q.** And the GI50 (TK-10)?
**A.** 2.56 µM (inactive)

**Q.** What about the GI50 (U-251) of the same compound?
**A.** 7.67 µM (inactive)

**Q.** And the GI50 (UO-31)?
**A.** 11.5 µM (inactive)

**Q.** For `CC1=NN=C(N)N/C1=C\C(Sc1ccc(Cl)cc1)c1ccc(Cl)cc1Cl` (stereo not given), which GI50 (786-0) is on record?
**A.** 18.5 µM (inactive)

**Q.** And the GI50 (A549)?
**A.** 8.34 µM (inactive)

**Q.** And the GI50 (CCRF-CEM)?
**A.** 2.33 µM (inactive)

**Q.** What about the GI50 (EKVX) of the same compound?
**A.** 13.2 µM (inactive)

**Q.** And the GI50 (HCC 2998)?
**A.** 4.67 µM (inactive)

**Q.** What about the GI50 (IGROV-1) of the same compound?
**A.** 8.61 µM (inactive)

**Q.** What about the GI50 (KM12) of the same compound?
**A.** 6.41 µM (inactive)

**Q.** What about the GI50 (LOX IMVI) of the same compound?
**A.** 14.3 µM (inactive)

**Q.** What about the GI50 (MDA-MB-231) of the same compound?
**A.** 21.1 µM (inactive)

**Q.** What about the GI50 (NCI-H23) of the same compound?
**A.** 13.1 µM (inactive)

**Q.** And the GI50 (OVCAR-4)?
**A.** 17.1 µM (inactive)

**Q.** What about the GI50 (OVCAR-5) of the same compound?
**A.** 15.9 µM (inactive)

**Q.** What about the GI50 (RXF 393) of the same compound?
**A.** 16.3 µM (inactive)

**Q.** And the GI50 (SK-MEL-5)?
**A.** 14.8 µM (inactive)

**Q.** And the GI50 (SNB-75)?
**A.** 13.9 µM (inactive)

**Q.** What about the GI50 (SW-620) of the same compound?
**A.** 17.2 µM (inactive)

**Q.** And the GI50 (T47D)?
**A.** 14.2 µM (inactive)

**Q.** What about the GI50 (TK-10) of the same compound?
**A.** 17.5 µM (inactive)

**Q.** What about the GI50 (U-251) of the same compound?
**A.** 14.2 µM (inactive)

**Q.** And the GI50 (UO-31)?
**A.** 11.2 µM (inactive)

**Q.** What does the source list for `NC(=O)c1ncn2c(=O)n(CCl)nnc12`?
**A.** GI50 (786-0): 85.9 µM (inactive); GI50 (A549): > 100 µM (inactive); GI50 (CCRF-CEM): 22.4 µM (inactive); GI50 (EKVX): > 100 µM (inactive); GI50 (HCC 2998): > 100 µM (inactive); GI50 (IGROV-1): > 100 µM (inactive); GI50 (KM12): > 100 µM (inactive); GI50 (LOX IMVI): 15.8 µM (inactive); GI50 (MDA-MB-231): > 100 µM (inactive); GI50 (NCI-H23): > 100 µM (inactive); GI50 (OVCAR-4): > 100 µM (inactive); GI50 (OVCAR-5): > 100 µM (inactive); GI50 (RXF 393): > 100 µM (inactive); GI50 (SK-MEL-5): > 100 µM (inactive); GI50 (SNB-75): > 100 µM (inactive); GI50 (SW-620): 42 µM (inactive); GI50 (T47D): 94.2 µM (inactive); GI50 (TK-10): 63.1 µM (inactive); GI50 (U-251): > 100 µM (inactive); GI50 (UO-31): > 100 µM (inactive)

**Q.** With `C[N+](C)(C)CCCCCc1c2nc(c(CCCCC[N+](C)(C)C)c3ccc([nH]3)c(CCCCC[N+](C)(C)C)c3nc(c(CCCCC[N+](C)(C)C)c4ccc1[nH]4)C=C3)C=C2` as the compound, how does the GI50 (786-0) read?
**A.** > 100 µM (inactive)

**Q.** And the GI50 (A549)?
**A.** 87.9 µM (inactive)

**Q.** And the GI50 (CCRF-CEM)?
**A.** > 100 µM (inactive)

**Q.** What about the GI50 (EKVX) of the same compound?
**A.** 99.8 µM (inactive)

**Q.** And the GI50 (HCC 2998)?
**A.** > 100 µM (inactive)

**Q.** And the GI50 (IGROV-1)?
**A.** > 100 µM (inactive)

**Q.** What about the GI50 (KM12) of the same compound?
**A.** > 100 µM (inactive)

**Q.** And the GI50 (LOX IMVI)?
**A.** > 100 µM (inactive)

**Q.** And the GI50 (MDA-MB-231)?
**A.** > 100 µM (inactive)

**Q.** And the GI50 (NCI-H23)?
**A.** > 100 µM (inactive)

**Q.** And the GI50 (OVCAR-4)?
**A.** > 100 µM (inactive)

**Q.** What about the GI50 (OVCAR-5) of the same compound?
**A.** > 100 µM (inactive)

**Q.** What about the GI50 (RXF 393) of the same compound?
**A.** 2.77 µM (inactive)

**Q.** And the GI50 (SK-MEL-5)?
**A.** > 100 µM (inactive)

**Q.** What about the GI50 (SNB-75) of the same compound?
**A.** > 100 µM (inactive)

**Q.** What about the GI50 (SW-620) of the same compound?
**A.** > 100 µM (inactive)

**Q.** What about the GI50 (T47D) of the same compound?
**A.** > 100 µM (inactive)

**Q.** And the GI50 (TK-10)?
**A.** 11.3 µM (inactive)

**Q.** What about the GI50 (U-251) of the same compound?
**A.** > 100 µM (inactive)

**Q.** And the GI50 (UO-31)?
**A.** > 100 µM (inactive)
